Results as given in ChEMBL document CHEMBL5316300, “Discovery of TP0597850: A Selective, Chemically Stable, and Slow Tight-Binding Matrix Metalloproteinase-2 Inhibitor with a Phenylbenzamide-Pentapeptide Hybrid Scaffold” (J Med Chem, 2023).

How the values were obtained:
Collagenase 3 = Collagenase 3 (Homo sapiens, UniProt P45452); experiment: Inhibition of human recombinant MMP13 using MOCAc-Lys-Pro-Leu-Gly-Leu-A2pr(Dnp)-Ala-Arg-N2 as substrate preincubated for 10 to 15 mins followed by substrate addition and measured after 60 to 120 mins by fluorescence based assay
[1] = target: 72 kDa type IV collagenase (Homo sapiens, UniProt P08253); experiment: Inhibition of recombinant human MMP2 using MOCAc-Lys-Pro-Leu-Gly-Leu-A2pr(Dnp)-Ala-Arg-N2 as substrate preincubated for 10 to 15 mins followed by substrate addition and measured after 60 to 120 mins by fluorescence based assay
Homo sapiens = organism: Homo sapiens; experiment: Selectivity ratio of IC50 for recombinant human MMP12 to IC50 for recombinant human MMP2
[2] = target: Macrophage metalloelastase (Homo sapiens, UniProt P39900); experiment: Inhibition of human recombinant MMP12 using MOCAc-Lys-Pro-Leu-Gly-Leu-A2pr(Dnp)-Ala-Arg-N2 as substrate preincubated for 10 to 15 mins followed by substrate addition and measured after 60 to 120 mins by fluorescence based assay
[3] = target: MMP-2/MMP-13 (Homo sapiens) (UniProt P08253+P45452); experiment: Selectivity ratio of IC50 for recombinant human MMP13 to IC50 for recombinant human MMP2; assay type: protein assay
MMP-2/MMP-13 (Homo sapiens), sequence (P08253 whole entry, looked up, other chains not shown): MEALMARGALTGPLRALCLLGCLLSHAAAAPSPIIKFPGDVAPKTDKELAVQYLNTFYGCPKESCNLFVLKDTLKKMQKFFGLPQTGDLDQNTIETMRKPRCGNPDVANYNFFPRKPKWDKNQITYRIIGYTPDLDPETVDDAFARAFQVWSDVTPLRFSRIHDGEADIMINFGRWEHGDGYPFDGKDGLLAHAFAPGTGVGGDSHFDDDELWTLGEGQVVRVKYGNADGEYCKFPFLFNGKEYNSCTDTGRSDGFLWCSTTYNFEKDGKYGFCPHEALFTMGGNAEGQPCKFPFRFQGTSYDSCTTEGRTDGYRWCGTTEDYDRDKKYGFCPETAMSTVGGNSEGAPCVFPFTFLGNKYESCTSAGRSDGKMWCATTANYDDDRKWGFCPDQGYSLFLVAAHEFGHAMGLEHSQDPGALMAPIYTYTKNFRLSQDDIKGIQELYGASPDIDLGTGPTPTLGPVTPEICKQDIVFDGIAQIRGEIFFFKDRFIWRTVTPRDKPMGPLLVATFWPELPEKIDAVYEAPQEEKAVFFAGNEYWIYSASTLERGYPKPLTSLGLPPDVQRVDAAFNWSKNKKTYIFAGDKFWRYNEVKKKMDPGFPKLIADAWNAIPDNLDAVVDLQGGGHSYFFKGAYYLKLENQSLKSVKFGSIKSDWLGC

Macrophage metalloelastase, sequence (P39900 whole entry): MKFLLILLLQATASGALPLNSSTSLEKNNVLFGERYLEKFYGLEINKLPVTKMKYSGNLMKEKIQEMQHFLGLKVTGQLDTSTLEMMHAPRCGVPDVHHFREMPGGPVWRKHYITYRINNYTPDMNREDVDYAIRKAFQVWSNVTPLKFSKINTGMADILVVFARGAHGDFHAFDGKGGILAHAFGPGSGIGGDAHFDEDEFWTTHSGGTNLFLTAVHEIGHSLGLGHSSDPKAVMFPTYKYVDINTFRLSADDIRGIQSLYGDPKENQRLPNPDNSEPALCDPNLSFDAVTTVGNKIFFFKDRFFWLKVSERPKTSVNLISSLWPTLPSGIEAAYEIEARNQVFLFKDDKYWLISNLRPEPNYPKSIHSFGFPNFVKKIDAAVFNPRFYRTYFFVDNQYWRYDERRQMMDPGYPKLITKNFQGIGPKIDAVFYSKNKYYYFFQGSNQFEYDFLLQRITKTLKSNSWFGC
72 kDa type IV collagenase, sequence (P08253 whole entry): as the sequence (P08253 whole entry, looked up, other chains not shown) above

Ki [1]	IC50 [2]	Compound	IC50 (Collagenase 3)	IC50 [1]	Ratio IC50 (Homo sapiens)	IC50 ([2]; read-out: IC50)	Ratio IC50 [3]
		CC[C@H](C)[C@@H](C(=O)NCCCCC(N)=O)N(C)C(=O)[C@H](CC(C)C)NC(=O)[C@H](CCN)NC(=O)CC[C@@H](NS(=O)(=O)c1ccc(NC(=O)c2ccc(Cl)cc2)cc1)C(=O)O	310 nM	0.11 nM	1600	180 nM	2800
		CC[C@H](C)[C@@H](C(=O)N1CCC[C@H]1CC(N)=O)N(C)C(=O)[C@H](CC(C)C)NC(=O)[C@H](CCN)NC(=O)CC[C@@H](NS(=O)(=O)c1ccc(NC(=O)c2ccc(C(N)=O)cc2)cc1)C(=O)O	280 nM	0.42 nM	950	400 nM	670
		CC[C@H](C)[C@@H](C(=O)NCCCCC(N)=O)N(C)C(=O)[C@H](CC(C)C)NC(=O)[C@@H]1C[C@H](N)CN1C(=O)CC[C@@H](NS(=O)(=O)c1ccc(NC(=O)c2ccc(C(N)=O)cc2)cc1)C(=O)O			550		860
21 nM		H-ISYGNDALMP-OH					
		CC[C@H](C)[C@@H](C(=O)N1CCC[C@H]1CC(N)=O)N(C)C(=O)[C@H](CC(C)C)NC(=O)[C@H](CCN)NC(=O)CC[C@@H](NS(=O)(=O)c1ccc(NC(=O)c2ccccc2)cc1)C(=O)O	630 nM	0.74 nM	1300	990 nM	850
		CC[C@H](C)[C@@H](C(=O)NCCCCC(N)=O)N(C)C(=O)[C@H](CC(C)C)NC(=O)[C@@H]1CNCCN1C(=O)CC[C@@H](NS(=O)(=O)c1ccc(NC(=O)c2ccc(Cl)cc2)cc1)C(=O)O	370 nM	0.67 nM	120	78 nM	550
		CC[C@H](C)[C@@H](C(=O)NCCC(N)=O)N(C)C(=O)[C@H](CC(C)C)NC(=O)[C@H](CCN)NC(=O)CC[C@@H](NS(=O)(=O)c1ccc(NC(=O)c2ccc(Cl)cc2)cc1)C(=O)O	280 nM	0.2 nM	1200	240 nM	1400
		CC[C@H](C)[C@@H](C(=O)NCCCC(N)=O)N(C)C(=O)[C@H](CC(C)C)NC(=O)[C@H](CCN)NC(=O)CC[C@@H](NS(=O)(=O)c1ccc(NC(=O)c2ccc(Cl)cc2)cc1)C(=O)O	280 nM	0.16 nM	1400	230 nM	1800
		CC(C)C[C@H](NC(=O)[C@@H]1CCCN1C(=O)CC[C@@H](NS(=O)(=O)c1ccc(NC(=O)c2ccc(C(N)=O)cc2)cc1)C(=O)O)C(=O)N(C)[C@@H](CCC(=O)O)C(=O)NCCCCC(N)=O	50 nM	0.31 nM	170	52 nM	160
	Not Active	CC[C@H](C)[C@@H](C(=O)N1CCC[C@H]1CC(N)=O)N(C)C(=O)[C@H](CC(C)C)NC(=O)[C@H](CCN)NC(=O)CC[C@@H](NS(=O)(=O)c1ccc(Oc2ccccc2)cc1)C(=O)O		> 10 nM			
		CC[C@H](C)[C@@H](C(=O)N1CCC[C@H]1CC(N)=O)N(C)C(=O)[C@H](CC(C)C)NC(=O)[C@H](CCN)NC(=O)CC[C@@H](NS(=O)(=O)c1ccc(NC(=O)c2ccc(Cl)cc2)cc1)C(=O)O	160 nM	0.43 nM	470	200 nM	370
		CC[C@H](C)[C@@H](C(=O)NCCCCCC(N)=O)N(C)C(=O)[C@H](CC(C)C)NC(=O)[C@H](CCN)NC(=O)CC[C@@H](NS(=O)(=O)c1ccc(NC(=O)c2ccc(Cl)cc2)cc1)C(=O)O	280 nM	0.1 nM	2600	260 nM	2800
		CC[C@H](C)[C@@H](C(=O)N1CCC[C@H]1CC(N)=O)N(C)C(=O)[C@H](CC(C)C)NC(=O)[C@H](CCN)NC(=O)CC[C@@H](NS(=O)(=O)c1ccc(-c2ccccc2)cc1)C(=O)O	230 nM	6.2 nM	39	240 nM	37
